From ChEMBL document CHEMBL1152361, “The application of phosphoramidate ProTide technology to the potent anti-HCV compound 4'-azidocytidine (R1479)” (Bioorg Med Chem Lett, 2009)

These molecules were tested on Hepatitis C virus (assay: Antiviral activity against HCV Con1 GT1b by replicon assay). Conditions: not given.
Format: functional, organism-based, Hepacivirus hominis

| SMILES | EC50 [µM] |
| --- | --- |
| C[C@H](NP(=O)(OC[C@@]1(N=[N+]=[N-])O[C@@H](n2ccc(N)nc2=O)[C@H](O)[C@@H]1O)Oc1cccc2ccccc12)C(=O)OCc1ccccc1 (stereo partly drawn) | 0.95 |
| CC(C)OC(=O)CNP(=O)(OC[C@@]1(N=[N+]=[N-])O[C@@H](n2ccc(N)nc2=O)[C@H](O)[C@@H]1O)Oc1ccccc1 (stereo partly drawn) | 4.5 |
| CC(C)OC(=O)CNP(=O)(OC[C@@]1(N=[N+]=[N-])O[C@@H](n2ccc(N)nc2=O)[C@H](O)[C@@H]1O)Oc1ccccc1 (single isomer, unassigned; Diastereomer 1) | 15 |
| C[C@H](NP(=O)(OC[C@@]1(N=[N+]=[N-])O[C@@H](n2ccc(N)nc2=O)[C@H](O)[C@@H]1O)Oc1ccc2ccccc2c1)C(=O)OCc1ccccc1 (single isomer, unassigned; diastereomer 1) | 4.3 |

Same assay, conditions: Hepatitis C virus, Con1 GT1b

| SMILES | IC50 [µM] | EC50 [µM] |
| --- | --- | --- |
| CC(C)(C)OC(=O)[C@H](Cc1ccccc1)NP(=O)(OC[C@@]1(N=[N+]=[N-])O[C@@H](n2ccc(N)nc2=O)[C@H](O)[C@@H]1O)Oc1ccccc1 (stereo partly drawn) | 6.7 |  |
| CC(C)(NP(=O)(OC[C@@]1(N=[N+]=[N-])O[C@@H](n2ccc(N)nc2=O)[C@H](O)[C@@H]1O)Oc1ccccc1)C(=O)OCc1ccccc1 (stereo partly drawn) |  | 9.2 |
| [N-]=[N+]=N[C@]1(COP(=O)(NCC(=O)OCc2ccccc2)Oc2ccccc2)O[C@@H](n2ccc(N)nc2=O)[C@H](O)[C@@H]1O (stereo partly drawn) |  | 2.1 |
| Cc1ccccc1OP(=O)(N[C@@H](C)C(=O)OCc1ccccc1)OC[C@@]1(N=[N+]=[N-])O[C@@H](n2ccc(N)nc2=O)[C@H](O)[C@@H]1O (stereo partly drawn) |  | 1.3 |
| C[C@@H](NP(=O)(OC[C@@]1(N=[N+]=[N-])O[C@@H](n2ccc(N)nc2=O)[C@H](O)[C@@H]1O)Oc1ccccc1)C(=O)OCc1ccccc1 (stereo partly drawn) |  | 2.2 |
| CC(C)C[C@H](NP(=O)(OC[C@@]1(N=[N+]=[N-])O[C@@H](n2ccc(N)nc2=O)[C@H](O)[C@@H]1O)Oc1ccccc1)C(=O)OC(C)C (stereo partly drawn) |  | > 100 |
| C[C@H](NP(=O)(OC[C@@]1(N=[N+]=[N-])O[C@@H](n2ccc(N)nc2=O)[C@H](O)[C@@H]1O)Oc1ccccc1)C(=O)Oc1ccccc1 (stereo partly drawn) |  | 2.9 |
| COc1ccccc1OP(=O)(N[C@@H](C)C(=O)OCc1ccccc1)OC[C@@]1(N=[N+]=[N-])O[C@@H](n2ccc(N)nc2=O)[C@H](O)[C@@H]1O (stereo partly drawn) |  | 2.3 |
| CCOC(=O)CN(C)P(=O)(OC[C@@]1(N=[N+]=[N-])O[C@@H](n2ccc(N)nc2=O)[C@H](O)[C@@H]1O)Oc1ccccc1 (stereo partly drawn) | 48 |  |
| CCOC(=O)[C@H](C)NP(=O)(OC[C@@]1(N=[N+]=[N-])O[C@@H](n2ccc(N)nc2=O)[C@H](O)[C@@H]1O)Oc1ccc(C)cc1 (stereo partly drawn) |  | 2.9 |
| CCOC(=O)[C@@H](NP(=O)(OC[C@@]1(N=[N+]=[N-])O[C@@H](n2ccc(N)nc2=O)[C@H](O)[C@@H]1O)Oc1ccccc1)[C@@H](C)CC (stereo partly drawn) |  | > 100 |
| CCOC(=O)[C@H](C)NP(=O)(OC[C@@]1(N=[N+]=[N-])O[C@@H](n2ccc(N)nc2=O)[C@H](O)[C@@H]1O)Oc1ccccc1 (stereo partly drawn) |  | 0.38 |
| CCOC(=O)[C@H](Cc1ccccc1)NP(=O)(OC[C@@]1(N=[N+]=[N-])O[C@@H](n2ccc(N)nc2=O)[C@H](O)[C@@H]1O)Oc1ccccc1 (stereo partly drawn) |  | 11 |
| CCOC(=O)[C@H](CC(C)C)NP(=O)(OC[C@@]1(N=[N+]=[N-])O[C@@H](n2ccc(N)nc2=O)[C@H](O)[C@@H]1O)Oc1ccc(C)cc1 (stereo partly drawn) |  | 4.3 |
| CCOC(=O)CC[C@H](NP(=O)(OC[C@@]1(N=[N+]=[N-])O[C@@H](n2ccc(N)nc2=O)[C@H](O)[C@@H]1O)Oc1ccccc1)C(=O)OCC (stereo partly drawn) | 44 |  |
| C[C@H](NP(=O)(OC[C@@]1(N=[N+]=[N-])O[C@@H](n2ccc(N)nc2=O)[C@H](O)[C@@H]1O)Oc1cccc(Cl)c1)C(=O)OCc1ccccc1 (stereo partly drawn) |  | 3.7 |
| COc1ccc(OP(=O)(N[C@@H](C)C(=O)OCc2ccccc2)OC[C@@]2(N=[N+]=[N-])O[C@@H](n3ccc(N)nc3=O)[C@H](O)[C@@H]2O)cc1 (stereo partly drawn) |  | > 100 |
| C[C@H](NP(=O)(OC[C@@]1(N=[N+]=[N-])O[C@@H](n2ccc(N)nc2=O)[C@H](O)[C@@H]1O)Oc1ccc(Cl)c(Cl)c1)C(=O)OCc1ccccc1 (stereo partly drawn) |  | 9.2 |
| CCOC(=O)[C@H](C)NP(=O)(OC[C@@]1(N=[N+]=[N-])O[C@@H](n2ccc(N)nc2=O)[C@H](O)[C@@H]1O)Oc1c(OC)cccc1OC (stereo partly drawn) |  | 4.1 |
| C[C@H](NP(=O)(OC[C@@]1(N=[N+]=[N-])O[C@@H](n2ccc(N)nc2=O)[C@H](O)[C@@H]1O)Oc1ccc(Cl)cc1)C(=O)OCc1ccccc1 (stereo partly drawn) |  | 6.2 |
| [N-]=[N+]=N[C@]1(COP(=O)(N[C@@H](Cc2ccccc2)C(=O)OCc2ccccc2)Oc2ccccc2)O[C@@H](n2ccc(N)nc2=O)[C@H](O)[C@@H]1O (stereo partly drawn) | 7.7 |  |
| CC(C)OC(=O)C(C)(C)NP(=O)(OC[C@@]1(N=[N+]=[N-])O[C@@H](n2ccc(N)nc2=O)[C@H](O)[C@@H]1O)Oc1ccccc1 (stereo partly drawn) |  | 3.1 |
| CC(C)OC(=O)[C@H](Cc1ccccc1)NP(=O)(OC[C@@]1(N=[N+]=[N-])O[C@@H](n2ccc(N)nc2=O)[C@H](O)[C@@H]1O)Oc1ccccc1 (stereo partly drawn) |  | 2.9 |
| COc1cccc(OP(=O)(N[C@@H](C)C(=O)OCc2ccccc2)OC[C@@]2(N=[N+]=[N-])O[C@@H](n3ccc(N)nc3=O)[C@H](O)[C@@H]2O)c1 (stereo partly drawn) |  | 8.8 |
| CCOC(=O)[C@H](CC(C)C)NP(=O)(OC[C@@]1(N=[N+]=[N-])O[C@@H](n2ccc(N)nc2=O)[C@H](O)[C@@H]1O)Oc1ccc(Cl)cc1 (stereo partly drawn) |  | 2.5 |
| CCCCOC(=O)[C@H](C)NP(=O)(OC[C@@]1(N=[N+]=[N-])O[C@@H](n2ccc(N)nc2=O)[C@H](O)[C@@H]1O)Oc1ccccc1 (stereo partly drawn) |  | 11 |

| SMILES | IC50 [µM] | EC50 [µM] |
| --- | --- | --- |
| CC(C)C[C@@H](NP(=O)(OC[C@@]1(N=[N+]=[N-])O[C@@H](n2ccc(N)nc2=O)[C@H](O)[C@@H]1O)Oc1ccccc1)C(=O)OCc1ccccc1 (stereo partly drawn) | 4.2 |  |
| C[C@H](NP(=O)(OC[C@@]1(N=[N+]=[N-])O[C@@H](n2ccc(N)nc2=O)[C@H](O)[C@@H]1O)Oc1ccccc1Cl)C(=O)OCc1ccccc1 (stereo partly drawn) |  | 3.5 |
| COC(=O)[C@H](C)NP(=O)(OC[C@@]1(N=[N+]=[N-])O[C@@H](n2ccc(N)nc2=O)[C@H](O)[C@@H]1O)Oc1ccccc1 (stereo partly drawn) |  | 3.1 |
| C[C@H](NP(=O)(OC[C@@]1(N=[N+]=[N-])O[C@@H](n2ccc(N)nc2=O)[C@H](O)[C@@H]1O)Oc1ccccc1)C(=O)OCc1ccccc1 (stereo partly drawn) |  | 6 |
| CCOC(=O)C[C@H](NP(=O)(OC[C@@]1(N=[N+]=[N-])O[C@@H](n2ccc(N)nc2=O)[C@H](O)[C@@H]1O)Oc1ccccc1)C(=O)OCC (stereo partly drawn) | 4.4 |  |
| CCOC(=O)[C@H](CC(C)C)NP(=O)(OC[C@@]1(N=[N+]=[N-])O[C@@H](n2ccc(N)nc2=O)[C@H](O)[C@@H]1O)Oc1ccc(Cl)c(Cl)c1 (stereo partly drawn) |  | 2.3 |
| CCOC(=O)[C@H](CC(C)C)NP(=O)(OC[C@@]1(N=[N+]=[N-])O[C@@H](n2ccc(N)nc2=O)[C@H](O)[C@@H]1O)Oc1ccccc1 (stereo partly drawn) |  | 11 |
| CCOC(=O)C1(NP(=O)(OC[C@@]2(N=[N+]=[N-])O[C@@H](n3ccc(N)nc3=O)[C@H](O)[C@@H]2O)Oc2ccccc2)CCCC1 (stereo partly drawn) | 56 |  |
| CCCCOC(=O)[C@@H](C)NP(=O)(OC[C@@]1(N=[N+]=[N-])O[C@@H](n2ccc(N)nc2=O)[C@H](O)[C@@H]1O)Oc1ccccc1 (stereo partly drawn) |  | 0.94 |
| C[C@H](NP(=O)(OC[C@@]1(N=[N+]=[N-])O[C@@H](n2ccc(N)nc2=O)[C@H](O)[C@@H]1O)Oc1ccccc1)C(=O)OC(C)(C)C (stereo partly drawn) |  | 0.72 |
| CCC(C)OC(=O)[C@H](C)NP(=O)(OC[C@@]1(N=[N+]=[N-])O[C@@H](n2ccc(N)nc2=O)[C@H](O)[C@@H]1O)Oc1ccccc1 (stereo partly drawn) |  | 0.62 |
| CCOC(=O)[C@@H]1CCCN1P(=O)(OC[C@@]1(N=[N+]=[N-])O[C@@H](n2ccc(N)nc2=O)[C@H](O)[C@@H]1O)Oc1ccccc1 (stereo partly drawn) |  | > 100 |
| CCOC(=O)CCNP(=O)(OC[C@@]1(N=[N+]=[N-])O[C@@H](n2ccc(N)nc2=O)[C@H](O)[C@@H]1O)Oc1ccccc1 (stereo partly drawn) | 47 |  |
| Cc1ccc(OP(=O)(N[C@@H](C)C(=O)OCc2ccccc2)OC[C@@]2(N=[N+]=[N-])O[C@@H](n3ccc(N)nc3=O)[C@H](O)[C@@H]2O)cc1 (stereo partly drawn) |  | 0.51 |
| CCCCCCCCCCCCOC(=O)[C@@H](C)NP(=O)(OC[C@@]1(N=[N+]=[N-])O[C@@H](n2ccc(N)nc2=O)[C@H](O)[C@@H]1O)Oc1ccccc1 (stereo partly drawn) |  | 30 |
| C[C@H](NP(=O)(OC[C@@]1(N=[N+]=[N-])O[C@@H](n2ccc(N)nc2=O)[C@H](O)[C@@H]1O)Oc1ccc(Br)cc1)C(=O)OCc1ccccc1 (stereo partly drawn) |  | 6.5 |
| CCOC(=O)[C@H](CC(C)C)NP(=O)(OC[C@@]1(N=[N+]=[N-])O[C@@H](n2ccc(N)nc2=O)[C@H](O)[C@@H]1O)Oc1ccc(OC)cc1 (stereo partly drawn) |  | 9.3 |
| CC(C)[C@H](NP(=O)(OC[C@@]1(N=[N+]=[N-])O[C@@H](n2ccc(N)nc2=O)[C@H](O)[C@@H]1O)Oc1ccccc1)C(=O)OCc1ccccc1 (stereo partly drawn) |  | 5.6 |
| CCOC(=O)[C@H](CCSC)NP(=O)(OC[C@@]1(N=[N+]=[N-])O[C@@H](n2ccc(N)nc2=O)[C@H](O)[C@@H]1O)Oc1ccccc1 (stereo partly drawn) |  | 18 |
| CCOC(=O)[C@@H](C)NP(=O)(OC[C@@]1(N=[N+]=[N-])O[C@@H](n2ccc(N)nc2=O)[C@H](O)[C@@H]1O)Oc1ccccc1 (stereo partly drawn) |  | 2.3 |
| CC(C)OC(=O)[C@H](C)NP(=O)(OC[C@@]1(N=[N+]=[N-])O[C@@H](n2ccc(N)nc2=O)[C@H](O)[C@@H]1O)Oc1ccccc1 (stereo partly drawn) |  | 0.99 |
| C[C@@H](NP(=O)(OC[C@@]1(N=[N+]=[N-])O[C@@H](n2ccc(N)nc2=O)[C@H](O)[C@@H]1O)Oc1ccccc1)C(=O)OC(C)(C)C (stereo partly drawn) |  | > 100 |
| C[C@H](NP(=O)(OC[C@@]1(N=[N+]=[N-])O[C@@H](n2ccc(N)nc2=O)[C@H](O)[C@@H]1O)Oc1cccc2ccccc12)C(=O)OCc1ccccc1 (single isomer, unassigned; diastereomer 2) |  | 1.2 |
| C[C@H](NP(=O)(OC[C@@]1(N=[N+]=[N-])O[C@@H](n2ccc(N)nc2=O)[C@H](O)[C@@H]1O)Oc1ccc2ccccc2c1)C(=O)OCc1ccccc1 (single isomer, unassigned; diastereomer 2) |  | 2.9 |
| [N-]=[N+]=N[C@]1(CO)O[C@@H](n2ccc(N)nc2=O)[C@H](O)[C@@H]1O [4'-AZIDOCYTIDINE] |  | 1.28 |

Each molecule was assayed on Hepatitis C virus (assay: Antiviral activity against HCV Con1 GT1b at 100 uM by replicon assay). Conditions: not given.
Format: functional, Hepacivirus hominis

| SMILES | inhibition at 100 µM [%] |
| --- | --- |
| CC(C)(C)OC(=O)[C@H](Cc1ccccc1)NP(=O)(OC[C@@]1(N=[N+]=[N-])O[C@@H](n2ccc(N)nc2=O)[C@H](O)[C@@H]1O)Oc1ccccc1 (stereo partly drawn) | 84 |
| CCOC(=O)CN(C)P(=O)(OC[C@@]1(N=[N+]=[N-])O[C@@H](n2ccc(N)nc2=O)[C@H](O)[C@@H]1O)Oc1ccccc1 (stereo partly drawn) | 72 |
| CCOC(=O)CC[C@H](NP(=O)(OC[C@@]1(N=[N+]=[N-])O[C@@H](n2ccc(N)nc2=O)[C@H](O)[C@@H]1O)Oc1ccccc1)C(=O)OCC (stereo partly drawn) | 74 |
| [N-]=[N+]=N[C@]1(COP(=O)(N[C@@H](Cc2ccccc2)C(=O)OCc2ccccc2)Oc2ccccc2)O[C@@H](n2ccc(N)nc2=O)[C@H](O)[C@@H]1O (stereo partly drawn) | 89 |
| CC(C)C[C@@H](NP(=O)(OC[C@@]1(N=[N+]=[N-])O[C@@H](n2ccc(N)nc2=O)[C@H](O)[C@@H]1O)Oc1ccccc1)C(=O)OCc1ccccc1 (stereo partly drawn) | 88 |
| CCOC(=O)C[C@H](NP(=O)(OC[C@@]1(N=[N+]=[N-])O[C@@H](n2ccc(N)nc2=O)[C@H](O)[C@@H]1O)Oc1ccccc1)C(=O)OCC (stereo partly drawn) | 88 |
| CCOC(=O)C1(NP(=O)(OC[C@@]2(N=[N+]=[N-])O[C@@H](n3ccc(N)nc3=O)[C@H](O)[C@@H]2O)Oc2ccccc2)CCCC1 (stereo partly drawn) | 69 |
| CCOC(=O)CCNP(=O)(OC[C@@]1(N=[N+]=[N-])O[C@@H](n2ccc(N)nc2=O)[C@H](O)[C@@H]1O)Oc1ccccc1 (stereo partly drawn) | 77 |
